Read-outs that look alike come from different tables or passages of the source.
Columns and labels:
[1] = molecular target: human TACE (Homo sapiens (Human), UniProt P78536); test: biochemical
Protocol: Finally, the fluorescence is read on the Envision (Perkin Elmer) after an incubation of 75 min at room temperature (Excitation 485 nm, Emission 530).

[2] = molecular target: human MMP13 (Homo sapiens (Human), UniProt P45452); test: hMMP13 assay, Protocol 1 (390 MMP FRET Substrate I, Chemicon enzyme); assay type: biochemical; details: Protocol 1, human MMP13 (Chemicon), read-out: hMMP-13 potency IC50
Protocol: Human MMP13 is preactivated by incubated the enzyme in the same buffer complemented with 1 mM freshly prepared p-Aminophenylmercuric acetate (AMPA) for 1 h at 37° C.

[3] = molecular target: human ADAMTS6 (Homo sapiens (Human), UniProt Q9UKP5); test: hADAMTS-6 fluorescent based protease assay (520 MMP FRET substrate XII); assay type: biochemical; details: 37° C. for 2 h; read-out: hADAMTS-6 potency IC50
Chain of human ADAMTS6 (Q9UKP5 other isoform, or with tags, fused parts or gaps): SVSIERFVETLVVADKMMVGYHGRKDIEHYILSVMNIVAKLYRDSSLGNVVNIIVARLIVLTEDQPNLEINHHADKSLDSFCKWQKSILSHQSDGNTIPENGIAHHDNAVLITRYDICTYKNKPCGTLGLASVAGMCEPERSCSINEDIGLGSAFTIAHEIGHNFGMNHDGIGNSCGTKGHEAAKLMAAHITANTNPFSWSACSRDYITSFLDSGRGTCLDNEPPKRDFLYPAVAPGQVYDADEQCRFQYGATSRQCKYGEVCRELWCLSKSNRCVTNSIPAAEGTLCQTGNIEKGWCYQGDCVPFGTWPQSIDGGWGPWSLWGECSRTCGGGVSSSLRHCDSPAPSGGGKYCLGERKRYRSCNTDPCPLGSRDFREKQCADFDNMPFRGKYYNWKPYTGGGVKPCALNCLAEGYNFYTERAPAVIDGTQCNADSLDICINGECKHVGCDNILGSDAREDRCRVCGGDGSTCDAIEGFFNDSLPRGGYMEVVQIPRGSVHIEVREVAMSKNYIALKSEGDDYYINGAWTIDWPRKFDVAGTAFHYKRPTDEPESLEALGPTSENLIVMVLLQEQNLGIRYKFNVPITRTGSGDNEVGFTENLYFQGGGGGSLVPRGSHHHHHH
Protocol: The IC50 value for test compounds can be determined in a fluorescent based protease assay.
The substrate contains sequence Arg-Pro-Lys-Pro-Tyr-Ala-Nva-Trp-Met-Lys (SEQ ID NO: 7) with attached a fluorescent probe and a quencher. Without ADAMTS6, the emission of the probe is quenched. If the substrate is cleaved by ADAMTS6, the emission of the probe is not quenched anymore. Inhibition of ADAMTS6 activity, will result in a decrease of the signal.
To perform the assay, 4 μL of a dilution series of compound in water, starting from 20 μM highest concentration, ⅕ dilution, is added to the wells. 2 ng ADAMTS6 enzyme is diluted in 25 mM Tris pH8.0, 0.05% CHAPS, 2.5 mM CaCl2 in a total volume of 26 μL (final concentration 0.73 nM). The reaction is started by addition of 10 μL of 1 μM 520 MMP FRET Substrate XII (final concentration, diluted in same buffer as described above) and the mixture is incubated at 37° C. for 2 h. […] After this incubation, cleavage of the substrate is measured using the Envision (Perkin Elmer, exc485/em530).

[4] = molecular target: human ADAMTS-5 (Homo sapiens (Human), UniProt Q9UNA0); test: hADAMTS-5 TBIS-1 cleavage assay, Protocol 3; assay type: biochemical; details: 90 min at 37° C., read-out: hADAMTS-5 potency IC50
Chain of human ADAMTS-5 (Q9UNA0 262-930): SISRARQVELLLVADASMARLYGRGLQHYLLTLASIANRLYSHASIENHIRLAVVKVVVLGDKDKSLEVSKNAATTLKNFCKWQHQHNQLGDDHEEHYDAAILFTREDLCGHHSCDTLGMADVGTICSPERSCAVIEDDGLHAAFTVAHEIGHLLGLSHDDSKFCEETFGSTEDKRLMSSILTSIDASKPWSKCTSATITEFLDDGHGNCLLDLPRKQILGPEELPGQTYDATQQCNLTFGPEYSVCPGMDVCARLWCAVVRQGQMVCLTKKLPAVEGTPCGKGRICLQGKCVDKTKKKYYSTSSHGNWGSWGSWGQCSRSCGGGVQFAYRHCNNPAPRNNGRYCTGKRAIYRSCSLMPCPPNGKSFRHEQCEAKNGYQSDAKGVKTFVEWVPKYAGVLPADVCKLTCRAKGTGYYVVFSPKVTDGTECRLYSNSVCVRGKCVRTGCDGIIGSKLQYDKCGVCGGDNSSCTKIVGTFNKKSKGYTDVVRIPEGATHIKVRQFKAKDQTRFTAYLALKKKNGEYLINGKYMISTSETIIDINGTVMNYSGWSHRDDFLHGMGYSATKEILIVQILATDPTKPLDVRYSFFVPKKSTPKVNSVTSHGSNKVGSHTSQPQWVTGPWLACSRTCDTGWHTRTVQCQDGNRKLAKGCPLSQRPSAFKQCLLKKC
Protocol: The reaction is initiated by adding to the assay plate TBIS-1 (10 μL, 4.5 μM, Anaspec) in the same buffer.
Finally, the fluorescence is read on the Envision (Perkin Elmer) after an incubation of 90 min at 37° C. (Excitation 485 nm, emission 530).

[5] = molecular target: human ADAMTS4 (Homo sapiens (Human), UniProt O75173); test: hADAMTS-4 TBIS-1 cleavage assay, Protocol 2; assay type: biochemical
Chain of human ADAMTS4 (O75173 213-837): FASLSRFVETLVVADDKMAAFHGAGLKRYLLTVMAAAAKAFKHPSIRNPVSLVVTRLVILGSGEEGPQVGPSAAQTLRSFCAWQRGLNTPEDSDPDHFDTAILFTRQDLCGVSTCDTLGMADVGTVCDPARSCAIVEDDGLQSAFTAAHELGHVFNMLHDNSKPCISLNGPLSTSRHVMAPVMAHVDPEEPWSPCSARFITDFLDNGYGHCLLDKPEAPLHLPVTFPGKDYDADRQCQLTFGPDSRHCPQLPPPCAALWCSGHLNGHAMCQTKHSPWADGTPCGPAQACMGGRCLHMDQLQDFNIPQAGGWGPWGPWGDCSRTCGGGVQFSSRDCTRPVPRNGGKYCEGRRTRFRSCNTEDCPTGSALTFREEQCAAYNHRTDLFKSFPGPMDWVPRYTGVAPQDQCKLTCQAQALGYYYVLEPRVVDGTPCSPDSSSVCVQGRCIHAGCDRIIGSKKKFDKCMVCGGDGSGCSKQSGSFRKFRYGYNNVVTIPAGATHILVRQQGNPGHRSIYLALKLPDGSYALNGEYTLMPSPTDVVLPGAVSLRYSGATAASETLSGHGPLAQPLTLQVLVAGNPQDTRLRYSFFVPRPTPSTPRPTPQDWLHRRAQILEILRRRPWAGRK

[6] = Protocol 2, 180 min at 37° C., read-out: ADAMTS4 potency IC50

Chain of human TACE (P78536 215-671): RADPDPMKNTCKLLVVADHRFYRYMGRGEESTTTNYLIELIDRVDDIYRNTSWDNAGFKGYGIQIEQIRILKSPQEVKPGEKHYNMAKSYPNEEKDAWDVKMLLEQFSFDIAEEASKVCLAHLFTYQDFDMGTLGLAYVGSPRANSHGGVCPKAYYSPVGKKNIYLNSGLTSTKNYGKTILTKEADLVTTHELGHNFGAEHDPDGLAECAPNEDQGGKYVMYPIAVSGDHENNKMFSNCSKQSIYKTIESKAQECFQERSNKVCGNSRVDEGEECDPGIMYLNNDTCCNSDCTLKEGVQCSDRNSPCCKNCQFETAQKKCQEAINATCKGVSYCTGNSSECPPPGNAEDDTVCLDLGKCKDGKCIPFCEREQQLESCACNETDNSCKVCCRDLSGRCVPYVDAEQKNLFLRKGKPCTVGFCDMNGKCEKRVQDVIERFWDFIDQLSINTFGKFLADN

Row | IC50 [1] [nM] | IC50 [3] [nM] | IC50 [4] [nM] | IC50 [5, 6] [nM] | Structure (SMILES) | IC50 [2] [nM] | IC50 [5] [nM]
1 | > 100 | 50 to 100 | > 100 | > 100 | COc1cc(F)cc(N2CCN(C(=O)CC[C@@]3(C)NC(=O)NC3=O)CC2)c1 [Cpd 19, (R)-5-[3-[4-(3-fluoro-5-methoxy-phenyl)piperazin-1-yl]-3-oxo-propyl]-5-methyl-imidazolidine-2,4-dione] | > 100 | 
2 |  | > 100 | > 100 |  | COc1ccc(C)c(N2CCN(C(=O)CCC3(C)NC(=O)NC3=O)CC2)c1 (centres unmarked) [Cpd 32, 5-[3-[4-(5-methoxy-2-methyl-phenyl)piperazin-1-yl]-3-oxo-propyl]-5-methyl-imidazolidine-2,4-dione] |  | 
3 |  | > 100 | > 100 |  | COc1cccc(N2CCN(C(=O)CCC3(C)NC(=O)NC3=O)CC2)c1C (centres unmarked) [Cpd 33, 5-[3-[4-(3-methoxy-2-methyl-phenyl)piperazin-1-yl]-3-oxo-propyl]-5-methyl-imidazolidine-2,4-dione] |  | 
4 |  | > 100 | > 100 |  | COc1ccc(C)c(N2CCN(C(=O)CCC3(C)NC(=O)NC3=O)C[C@@H]2C)c1 (stereo partly drawn) [Cpd 35, 5-[3-[(3S)-4-(5-methoxy-2-methyl-phenyl)-3-methyl-piperazin-1-yl]-3-oxo-propyl]-5-methyl-imidazolidine-2,4-dione] |  | 
5 | > 100 | > 100 | > 100 | > 100 | COc1cncc(N2CCN(C(=O)CCC3(C4CC4)NC(=O)NC3=O)C[C@@H]2C)c1 (stereo partly drawn) [Cpd 60, 5-cyclopropyl-5-[3-[(3S)-4-(5-methoxy-3-pyridyl)-3-methyl-piperazin-1-yl]-3-oxo-propyl]imidazolidine-2,4-dione] |  | 
6 | > 100 | 50 to 100 | > 100 |  | COc1cc(N2CCN(C(=O)CC[C@@]3(C)NC(=O)NC3=O)C[C@@H]2C)c(C)cc1F [Cpd 66, (5R)-5-[3-[(3S)-4-(4-fluoro-5-methoxy-2-methyl-phenyl)-3-methyl-piperazin-1-yl]-3-oxo-propyl]-5-methyl-imidazolidine-2,4-dione] |  | 
7 | > 100 | > 100 | > 100 |  | COc1c(Cl)cccc1N1CCN(C(=O)CC[C@@]2(C)NC(=O)NC2=O)C[C@@H]1C [Cpd 69, (5R)-5-[3-[(3 S)-4-(3-chloro-2-methoxy-phenyl)-3-methyl-piperazin-1-yl]-3-oxo-propyl]-5-methyl-imidazolidine-2,4-dione] |  | 
8 | > 100 | > 100 | > 100 |  | CCc1cccc(N2CCN(C(=O)CC[C@@]3(C)NC(=O)NC3=O)CC2)c1 [Cpd 70, (5R)-5-[3-[4-(3-ethylphenyl)piperazin-1-yl]-3-oxo-propyl]-5-methyl-imidazolidine-2,4-dione] |  | 
9 | > 100 | > 100 | > 100 |  | COc1cc(Cl)ccc1N1CCN(C(=O)CC[C@@]2(C)NC(=O)NC2=O)CC1 [Cpd 73, (5R)-5-[3-[4-(4-chloro-2-methoxy-phenyl)piperazin-1-yl]-3-oxo-propyl]-5-methyl-imidazolidine-2,4-dione] |  | 
10 | > 100 | > 100 | > 100 |  | COc1cc(Cl)ccc1N1CCN(C(=O)CC[C@@]2(C)NC(=O)NC2=O)C[C@@H]1C [Cpd 76, (5R)-5-[3-[(3 S)-4-(4-chloro-2-methoxy-phenyl)-3-methyl-piperazin-1-yl]-3-oxo-propyl]-5-methyl-imidazolidine-2,4-dione] |  | 
11 | > 100 | > 100 | > 100 |  | COc1cc(F)ccc1N1CCN(C(=O)CC[C@@]2(C)NC(=O)NC2=O)CC1 [Cpd 78, (5R)-5-[3-[4-(4-fluoro-2-methoxy-phenyl)piperazin-1-yl]-3-oxo-propyl]-5-methyl-imidazolidine-2,4-dione] |  | 
12 | > 100 | > 100 | > 100 |  | COc1ccc(Cl)cc1N1CCN(C(=O)CC[C@@]2(C)NC(=O)NC2=O)C[C@@H]1C [Cpd 91, (5R)-5-[3-[(3 S)-4-(5-chloro-2-methoxy-phenyl)-3-methyl-piperazin-1-yl]-3-oxo-propyl]-5-methyl-imidazolidine-2,4-dione] |  | 
13 | > 100 | 0.001 to 25 | > 100 |  | COc1cc(Cl)c(Cl)cc1N1CCN(C(=O)CC[C@@]2(C)NC(=O)NC2=O)CC1 [Cpd 94, (5R)-5-[3-[4-(4,5-dichloro-2-methoxy-phenyl)piperazin-1-yl]-3-oxo-propyl]-5-methyl-imidazolidine-2,4-dione] |  | 
14 | > 100 | 0.001 to 25 | > 100 |  | COc1cc(Cl)c(C)cc1N1CCN(C(=O)CC[C@@]2(C)NC(=O)NC2=O)C[C@@H]1C [Cpd 95, (5R)-5-[3-[(3S)-4-(4-chloro-2-methoxy-5-methyl-phenyl)-3-methyl-piperazin-1-yl]-3-oxo-propyl]-5-methyl-imidazolidine-2,4-dione] |  | 
15 |  | 0.001 to 25 | > 100 |  | COc1cc(N2CCN(C(=O)CC[C@@]3(C)NC(=O)NC3=O)C[C@@H]2C)cc(OC)c1Cl [Cpd 110, (5R)-5-[3-[(3 S)-4-(4-chloro-3,5-dimethoxy-phenyl)-3-methyl-piperazin-1-yl]-3-oxo-propyl]-5-methyl-imidazolidine-2,4-dione] |  | 
16 |  | 0.001 to 25 | > 100 |  | CCOc1cc(N2CCN(C(=O)CC[C@@]3(C)NC(=O)NC3=O)C[C@@H]2C)ccc1Cl [Cpd 111, (5R)-5-[3-[(3 S)-4-(4-chloro-3-ethoxy-phenyl)-3-methyl-piperazin-1-yl]-3-oxo-propyl]-5-methyl-imidazolidine-2,4-dione] |  | 
17 |  | > 100 | > 100 |  | COc1cc(F)c(F)cc1N1CCN(C(=O)CC[C@@]2(C)NC(=O)NC2=O)C[C@@H]1C [Cpd 113, (5R)-5-[3-[(3 S)-4-(4,5-difluoro-2-methoxy-phenyl)-3-methyl-piperazin-1-yl]-3-oxo-propyl]-5-methyl-imidazolidine-2,4-dione] |  | 
18 |  | > 100 | > 100 |  | COc1cc(N2CCN(C(=O)CC[C@H]3NC(=O)NC3=O)C[C@H]2C)cc(F)c1F [Cpd 127, (5R)-5-[3-[(3R)-4-(3,4-difluoro-5-methoxy-phenyl)-3-methyl-piperazin-1-yl]-3-oxo-propyl]imidazolidine-2,4-dione] |  | 
19 |  | > 100 | > 100 |  | COc1ccc(C)c(N2CCN(C(=O)CC[C@H]3NC(=O)NC3=O)CC2)c1 [Cpd 136, (5R)-5-[3-[4-(5-methoxy-2-methyl-phenyl)piperazin-1-yl]-3-oxo-propyl]imidazolidine-2,4-dione] |  | 
20 |  | > 100 | > 100 |  | COc1cccc(N2CCN(C(=O)CC[C@H]3NC(=O)NC3=O)CC2)c1C [Cpd 137, (5R)-5-[3-[4-(3-methoxy-2-methyl-phenyl)piperazin-1-yl]-3-oxo-propyl]imidazolidine-2,4-dione] |  | 
21 |  | > 100 | > 100 |  | COc1ccc(C)c(N2CCN(C(=O)CC[C@H]3NC(=O)NC3=O)C[C@@H]2C)c1 [Cpd 140, (5R)-5-[3-[(3 S)-4-(5-methoxy-2-methyl-phenyl)-3-methyl-piperazin-1-yl]-3-oxo-propyl]imidazolidine-2,4-dione] |  | 
22 | > 100 | 50 to 100 | > 100 |  | CCOc1cc(N2CCN(C(=O)CC[C@H]3NC(=O)NC3=O)CC2)cc(OC)c1Cl [Cpd 149, (5R)-5-[3-[4-(4-chloro-3-ethoxy-5-methoxy-phenyl)piperazin-1-yl]-3-oxo-propyl]imidazolidine-2,4-dione] |  | 
23 | > 100 | 25 to 50 | > 100 |  | COc1cc(N2CCN(C(=O)CC[C@H]3NC(=O)NC3=O)CC2)cc(OC)c1F [Cpd 151, (5R)-5-[3-[4-(4-fluoro-3,5-dimethoxy-phenyl)piperazin-1-yl]-3-oxo-propyl]imidazolidine-2,4-dione] |  | 

Row | Structure (SMILES) | IC50 [1] [nM] | IC50 [3] [nM] | IC50 [4] [nM] | IC50 [5, 6] [nM] | IC50 [2] [nM] | IC50 [5] [nM]
24 | COCC1(CC(C)C(=O)N2CCN(c3cc(F)c(F)c(OC)c3)[C@@H](C)C2)NC(=O)NC1=O (mixture of isomers) [Cpd 46, 5-[3-[(3S)-4-(3,4-difluoro-5-methoxy-phenyl)-3-methyl-piperazin-1-yl]-2-methyl-3-oxo-propyl]-5-(methoxymethyl)imidazolidine-2,4-dione] | > 100 | 0.001 to 25 | 25 to 50 |  | > 100 | 25 to 50
25 | COc1cc(N2CCN(C(=O)[C@@H](C)C[C@@]3(c4ccccn4)NC(=O)NC3=O)C[C@@H]2C)cc(F)c1F (stereo in doubt) [Cpd 49, 5-[3-[(3 S)-4-(3,4-difluoro-5-methoxy-phenyl)-3-methyl-piperazin-1-yl]-2-methyl-3-oxo-propyl]-5-(2-pyridyl)imidazolidine-2,4-dione] | > 100 | 0.001 to 25 | 25 to 50 |  |  | 50 to 100

Source: US10829478B2, “5-[3-[piperazin-1-yl]-3-oxo-propyl]-imidazolidine-2,4-dione derivatives as ADAMTS 4 and 5 inhibitors for treating e.g. osteoarthritis” (Galapagos NV, priority 2016, dated 2020)
